Data set [1] has as its system effet hypertenseur de la noradrénaline. Briefly: Urethral specificity of alpha-blocking activity in vivo in the rabbit: inhibition of noradrenaline-induced rise of arterial and urethral pressure. To be noted: for ED50: Oryctolagus cuniculus, intravenous administration; for R DI50 (a) DI50 (u): ratio of arterial DI50 to urethral DI50. More on the design: species or system lapin. An excerpt:
4. Spécificité urétrale de l'activité alpha bloquante déterminée in vivo chez le lapin :
a) - Principe de la mesure
. La noradérnaline (I.V.) provoque des augmentations dépendantes des doses de la pression artérielle et de la pression urétrale. Les substances adrénolytiques alpha antagonisent ces augmentations de pression.
. Pour les produits B 1020 - B 1037 et B 1059 administrés par voie veineuse, nous avons déterminé les doses inhibant de 50 p. cent (DI₅₀ ) l'effet de la noradrénaline au niveau artériel et urétral et évaluer le rapport R de ces DI₅₀ .

Data set [2] is described as follows: Acute toxicity test in the mouse (oral). As to conditions: in vivo, read-out: Mortalité en %. The text has this:
1. Tests de toxicité aiguë chez la souris
Les résultats sont rapportés dans le tableau 1.

Data set [3] deals with récepteurs α-adrénergiques. Briefly: Adrenolytic activity in vivo in the rat: protection against death induced by i.v. noradrenaline. To be noted: 50 mg/kg P.O, 30 min before i.v. noradrenaline (0,4 mg/kg). How it is done: 3. Détermination de l'activité adrénolytique "in vivo" chez le rat
. La noradrénaline injectée à fortes doses par voie intraveineuse provoque la mort de 1OO % des animaux dans les 15 min qui suivent son injection. La mort survient par oedème pulmonaire dû à l'hypertension artérielle induite principalement par la stimulation des récepteurs α-adrénergiques.
. L'administration préalable de substances α-adrénolytiques par voie orale permet de réduire la toxicité de la noradrénaline.
Les produits B 1O2O - B 1O21 - B 1O37 - B 1O59 sont administrés par voie orale 3O min avant l'injection intraveineuse de noradrénaline (O,4 mg/kg).

Data set [4] concerns canal déférent isolé de rat. Briefly: α-adrenolytic action in vitro: antagonism of noradrenaline-induced contractions of isolated rat vas deferens (pA2). It counts as cell-based. To be noted: pA2 against noradrenaline, read-out: Action α-bloquante vis-à-vis de la noradrénaline PA2 sur canal déférent isolé (converted). An excerpt:
2. Détermination de l'action α-adrénolytique "in vitro" sur le canal déférent du rat.
La noradrénaline provoque des contractions du canal déférent isolé de rat. La présence dans le bain de l'organe de substances α-bloquantes antagonise ces contractions.
L'utilisation de concentrations croissantes de substances α-bloquantes permet de calculer : . la PA₂ des composés sur le canal déférent de rat.
La PA₂ étant le logarithme changé de signe de la concentration molaire des produits B 1O2O - B 1O21 - B 1O37 - -B 1O59 en présence de laquelle il faut multiplier par deux la concentration de noradrénaline pour obtenir le même effet qu'en l'absence dudit produit.

Where [5] appears, read: arterial pressure, read-out: Doses inhibant de 50 p.cent (DI50) l'effet hypertenseur de la noradrénaline au niveau artériel DI50 (a).
The mark [6] stands for this setting: urethral pressure, read-out: Doses inhibant de 50 p.cent (DI50) l'effet hypertenseur de la noradrénaline au niveau urétral DI50 (u).

Where two headings read alike, the source gives them in different places. Some results are limits rather than exact numbers.

As to `CC(=O)Oc1cc(C(C)C)c(OCCN(C)C)cc1C` [Thymoxamine, chlorhydrate de thymoxamine, reference compound], the ED50 is 2.9 mg/kg in data set [1] (setting [5]) and 0.7 mg/kg in data set [1] (setting [6]). The “R DI50 (a) DI50 (u)” value in data set [1] is 4,1. In addition, the mortality in data set [2] (100 mg/kg) amounted to 0%; in data set [2] (1000 mg/kg), 100%. The “% de protection contre la mort” value in data set [3] was determined as 80%. Besides, the Kb in data set [4] was 56.2 nM.

In the case of `CC(=O)c1cc(C(C)C)c(OCCCN2CCCCC2)cc1C` [B 1021, chlorhydratede l'acétyl-2-[(pipéridino-3)propoxy]-5 p.cymène], the figures for the mortality in data set [2] (100 mg/kg) and in data set [2] (1000 mg/kg) were 20% and 100%, respectively. In data set [3], the “% de protection contre la mort” value is 40%. In addition, the Kb in data set [4] is 1740 nM.

Take `CC(=O)Oc1cc(C(C)C)c(OCCCN2CCCCC2)cc1C` [B 1059, chlorhydratede l'acétoxy-2-[(pipéridino-3)propoxy]-5 p.cymène]: the ED50 was more than 3 mg/kg in data set [1] (setting [5]) and 0.8 mg/kg in data set [1] (setting [6]). The “R DI50 (a) DI50 (u)” value in data set [1] is listed as > 3,7. For the same compound, the mortality is 0% in data set [2] (100 mg/kg) and 100% in data set [2] (1000 mg/kg). Also, the “% de protection contre la mort” value in data set [3] was determined as 50%. Further, the Kb in data set [4] is 126 nM.

Turning to `Cc1ccc(C(C)C)c(OCCCN2CCCCC2)c1` [B 1020, chlorhydrate du [(pipéridino-3)propoxy]-3 p.cymène], the results for the ED50 in data set [1] (setting [5]) and in data set [1] (setting [6]) were more than 3 mg/kg and 1.7 mg/kg, respectively. Further, the “R DI50 (a) DI50 (u)” value in data set [1] is > 1,7. Further, the mortality in data set [2] (100 mg/kg) was determined as 0%; in data set [2] (1000 mg/kg) it was 40%. The “% de protection contre la mort” value in data set [3] is on record as 80%. Moreover, the Kb in data set [4] was 302 nM.

As to `Cc1cc(OCCCN2CCCCC2)c(C(C)C)cc1O` [B 1037, chlorhydratede l'hydroxy-2-[(pipéridino-3)propoxy]-5 p.cymène], the ED50 was more than 3 mg/kg in data set [1] (setting [5]) and 0.5 mg/kg in data set [1] (setting [6]). For the same compound, in data set [1], the “R DI50 (a) DI50 (u)” value was more than 6. For the same compound, the mortality in data set [2] (100 mg/kg) was 0%; in data set [2] (1000 mg/kg), 100%. Further, in data set [3], the “% de protection contre la mort” value is reported as 50%. Besides, the Kb in data set [4] was 151 nM.
